Laboratory results from patent US20060128769A1, “Thiazoyl biphenyl amides” (priority 2002, published 2006).
Where two headings read alike, the source gives them in different places.

How the values were obtained:
[1] = logP determination by HPLC on a reversed-phase column (C 18), EEC Directive 79/831 Annex V.A8; type: physicochemical; conditions: reversed-phase HPLC column (C 18)
Experimental: The logP values given in the preparation examples and tables above are determined in accordance with EEC Directive 79/831 Annex V.A8 by HPLC (High Performance Liquid Chromatography) using a reversed-phase column (C 18). Temperature: 43° C. The determination is carried out in the acidic range at pH 2.3 using the mobile phases 0.1% aqueous phosphoric acid and acetonitrile; linear gradient from 10% acetonitrile to 90% acetonitrile. Calibration is carried out using unbranched alkan-2-ones (having 3 to 16 carbon atoms) with known logP values (determination of the logP values by the retention times using linear interpolation between two successive alkanones).

Sphaerotheca fuliginea = experiment: Sphaerotheca test (cucumber)/protective; type: in vivo; conditions: Podosphaera fuliginea, 168 h, protective, application rate 100 g/ha, evaluation 7 days after inoculation, read-out: % efficacy
Experimental: • Solvents: 24.5 parts by weight of acetone 24.5 parts by weight of dimethylacetamide • Emulsifier: 1 part by weight of alkylaryl polyglycol ether
(§1) To produce a suitable preparation of active compound, 1 part by weight of active compound is mixed with the stated amounts of solvents and emulsifier, and the concentrate is diluted with water to the desired concentration.
To test for protective activity, young plants are sprayed with the preparation of active compound at the stated application rate. After the spray coating has dried on, the plants are inoculated with an aqueous spore suspension of Sphaerotheca fuliginea. The plants are then placed in a greenhouse at about 23° C. and a relative atmospheric humidity of about 70%.
Evaluation is carried out 7 days after the inoculation. 0% means an efficacy which corresponds to that of the control, whereas an efficacy of 100% means that no infection is observed.

Venturia inaequalis = experiment: Venturia test (apple)/protective; type: in vivo; conditions: 240 h, protective, application rate 100 g/ha, evaluation 10 days after inoculation, read-out: % efficacy
Experimental: (§2) • Solvents: 24.5 parts by weight of acetone 24.5 parts by weight of dimethylacetamide • Emulsifier: 1.0 part by weight of alkylaryl polyglycol ether
as §1
To test for protective activity, young plants are sprayed with the preparation of active compound at the stated application rate. After the spray coating has dried on, the plants are inoculated with an aqueous conidia suspension of the apple scab pathogen Venturia inaequalis and then remain in an incubation cabin at about 20° C. and 100% relative atmospheric humidity for one day.
The plants are then placed in a greenhouse at about 21° C. and a relative atmospheric humidity of about 90%.
Evaluation is carried out 10 days after the inoculation. 0% means an efficacy which corresponds to that of the control, whereas an efficacy of 100% means that no infection is observed.

Botrytis cinerea = experiment: Botrytis test (bean)/protective; type: in vivo; conditions: 48 h, protective, application rate 500 g/ha, evaluation 2 days after inoculation, read-out: % efficacy
Experimental: as §2, §1
To test for protective activity, young plants are sprayed with the preparation of active compound at the stated application rate. After the spray coating has dried on, 2 small pieces of agar colonized by Botrytis cinerea are placed onto each leaf. The inoculated plants are placed in a dark chamber at about 20° C. and 100% relative atmospheric humidity.
2 days after the inoculation, the size of the infected areas on leaves is evaluated. 0% means an efficacy which corresponds to that of the control, whereas an efficacy of 100% means that no infection is observed.

Alternaria solani = experiment: Alternaria test (tomato)/protective; type: in vivo; conditions: 168 h, protective, application rate 750 g/ha, evaluation 7 days after inoculation, read-out: % efficacy
Experimental: • Solvent: 49 parts by weight of N,N-dimethylformaide • Emulsifier: 1 part by weight of alkylaryl polyglycol ether To produce a suitable preparation of active compound, 1 part by weight of active compound is mixed with the stated amounts of solvent and emulsifier, and the concentrate is diluted with water to the desired concentration. To test for protective activity, young tomato plants are sprayed with the preparation of active compound at the stated application rate. 1 day after the treatment, the plants are inoculated with an aqueous spore suspension of Alternaria solani and then remain at 100% relative humidity for 24 hours. The plants then remain at about 96% relative atmospheric humidity and a temperature of 20° C. Evaluation is carried out 7 days after the inoculation. 0% means an efficacy which corresponds to that of the control, whereas an efficacy of 100% means that no infection is observed.

[2] = pH 2.3, HPLC reversed-phase C 18, 43° C., 0.1% aqueous phosphoric acid/acetonitrile, read-out: logP (pH 2.3)
[3] = Table 1, acidic range pH 2.3, HPLC reversed-phase C 18, 43° C., read-out: logP

Row | chromatographic logP [1, 2] | melting point [°C] | chromatographic logP [1, 3] | Compound | Emax at 100 g/ha (Sphaerotheca fuliginea) [%] | Emax at 100 g/ha (Venturia inaequalis) [%] | Emax at 500 g/ha (Botrytis cinerea) [%] | Emax at 750 g/ha (Alternaria solani) [%]
1 | 3.34 | 151 |  | Cc1nc(C(F)F)c(C(=O)Nc2ccccc2-c2ccc(Br)cc2)s1 [II-1, N-(4′-bromo-1,1′-biphenyl-2-yl)-2-methyl-4-(difluoromethyl)-1,3-thiazole-5-carboxamide] |  |  |  | 
2 | 3.26 | 144 |  | Cc1nc(C(F)F)c(C(=O)Nc2ccccc2-c2ccc(Cl)cc2)s1 [II-2, N-(4′-chloro-1,1′-biphenyl-2-yl)-2-methyl-4-(difluoromethyl)-1,3-thiazole-5-carboxamide] |  |  |  | 

Second part, the compound before the results:

Row | Compound | chromatographic logP [1, 2] | melting point [°C] | chromatographic logP [1, 3] | Emax at 100 g/ha (Sphaerotheca fuliginea) [%] | Emax at 100 g/ha (Venturia inaequalis) [%] | Emax at 500 g/ha (Botrytis cinerea) [%] | Emax at 750 g/ha (Alternaria solani) [%]
3 | Cc1nc(C(F)F)c(C(=O)N(C)c2ccccc2-c2ccc(Br)cc2)s1 [Example 6] |  |  | 3.44 | 100 |  |  | 
4 | Cc1nc(C(F)F)c(C(=O)N(C)c2ccccc2-c2ccc(Cl)cc2)s1 [Example 2] | 3.34 |  |  | 95 |  |  | 
5 | CC(=O)N(C(=O)c1sc(C)nc1C(F)F)c1ccccc1-c1ccc(Br)cc1 [Example 1, N-acetyl-N-(4′-bromo-1,1′-biphenyl-2-yl)-4-(difluoromethyl)-2-methyl-1,3-thiazole-5-carboxamide] | 3.61 |  |  | 100 | 100 | 98 | 
6 | Cc1nc(C(F)F)c(C(=O)N(C(=O)c2sc(C)nc2C(F)F)c2ccccc2-c2cc(Cl)cc(Cl)c2)s1 [Example 4] |  |  | 4.28 | 100 | 99 | 94 | 95
